Structures can show the parent of a compound that is named as a salt.
Experiments:
[1] = molecular target: T1, DNA topoisomerase 1 (Homo sapiens) (UniProt P11387); assay: (§1) Inhibition of recombinant human DNA topoisomerase 1 expressed in baculovirus expression system assessed as decrease in relaxation of supercoiled pBR322 plasmid DNA at 20 uM using supercoiled pBR322 plasmid DNA as substrate incubated for 30 mins by ethidium bromide staining-based UV imaging analysis relative to control
T1 sequence (whole entry): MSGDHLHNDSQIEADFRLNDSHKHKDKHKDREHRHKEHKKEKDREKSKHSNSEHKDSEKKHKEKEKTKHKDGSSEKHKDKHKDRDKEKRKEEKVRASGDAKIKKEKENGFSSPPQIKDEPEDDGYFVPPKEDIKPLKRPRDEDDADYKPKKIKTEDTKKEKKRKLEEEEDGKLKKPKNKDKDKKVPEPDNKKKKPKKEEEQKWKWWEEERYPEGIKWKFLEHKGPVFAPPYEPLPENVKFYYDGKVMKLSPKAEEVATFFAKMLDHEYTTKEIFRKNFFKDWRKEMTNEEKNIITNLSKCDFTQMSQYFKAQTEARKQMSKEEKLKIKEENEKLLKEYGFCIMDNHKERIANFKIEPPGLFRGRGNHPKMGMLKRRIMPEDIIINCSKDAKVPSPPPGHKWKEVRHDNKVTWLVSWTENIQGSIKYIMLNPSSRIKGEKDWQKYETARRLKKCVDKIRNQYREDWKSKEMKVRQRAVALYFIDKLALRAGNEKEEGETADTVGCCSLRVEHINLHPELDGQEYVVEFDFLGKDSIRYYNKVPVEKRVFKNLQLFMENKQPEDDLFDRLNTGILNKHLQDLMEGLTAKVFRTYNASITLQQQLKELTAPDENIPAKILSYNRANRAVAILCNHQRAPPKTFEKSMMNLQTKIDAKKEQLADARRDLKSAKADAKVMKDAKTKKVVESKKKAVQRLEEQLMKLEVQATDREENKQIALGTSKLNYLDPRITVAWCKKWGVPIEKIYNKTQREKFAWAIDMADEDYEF

[2] = molecular target: DNA topoisomerase 2-alpha (Homo sapiens) (UniProt P11388); assay: Inhibition of human DNA topoisomerase 2alpha assessed as decrease in relaxation of supercoiled pBR322 plasmid DNA at 100 uM using supercoiled pBR322 plasmid DNA as substrate incubated for 30 mins in presence of ATP by ethidium bromide staining-based UV imaging analysis relative to control
DNA topoisomerase 2-alpha (Homo sapiens), sequence (P11388 whole entry): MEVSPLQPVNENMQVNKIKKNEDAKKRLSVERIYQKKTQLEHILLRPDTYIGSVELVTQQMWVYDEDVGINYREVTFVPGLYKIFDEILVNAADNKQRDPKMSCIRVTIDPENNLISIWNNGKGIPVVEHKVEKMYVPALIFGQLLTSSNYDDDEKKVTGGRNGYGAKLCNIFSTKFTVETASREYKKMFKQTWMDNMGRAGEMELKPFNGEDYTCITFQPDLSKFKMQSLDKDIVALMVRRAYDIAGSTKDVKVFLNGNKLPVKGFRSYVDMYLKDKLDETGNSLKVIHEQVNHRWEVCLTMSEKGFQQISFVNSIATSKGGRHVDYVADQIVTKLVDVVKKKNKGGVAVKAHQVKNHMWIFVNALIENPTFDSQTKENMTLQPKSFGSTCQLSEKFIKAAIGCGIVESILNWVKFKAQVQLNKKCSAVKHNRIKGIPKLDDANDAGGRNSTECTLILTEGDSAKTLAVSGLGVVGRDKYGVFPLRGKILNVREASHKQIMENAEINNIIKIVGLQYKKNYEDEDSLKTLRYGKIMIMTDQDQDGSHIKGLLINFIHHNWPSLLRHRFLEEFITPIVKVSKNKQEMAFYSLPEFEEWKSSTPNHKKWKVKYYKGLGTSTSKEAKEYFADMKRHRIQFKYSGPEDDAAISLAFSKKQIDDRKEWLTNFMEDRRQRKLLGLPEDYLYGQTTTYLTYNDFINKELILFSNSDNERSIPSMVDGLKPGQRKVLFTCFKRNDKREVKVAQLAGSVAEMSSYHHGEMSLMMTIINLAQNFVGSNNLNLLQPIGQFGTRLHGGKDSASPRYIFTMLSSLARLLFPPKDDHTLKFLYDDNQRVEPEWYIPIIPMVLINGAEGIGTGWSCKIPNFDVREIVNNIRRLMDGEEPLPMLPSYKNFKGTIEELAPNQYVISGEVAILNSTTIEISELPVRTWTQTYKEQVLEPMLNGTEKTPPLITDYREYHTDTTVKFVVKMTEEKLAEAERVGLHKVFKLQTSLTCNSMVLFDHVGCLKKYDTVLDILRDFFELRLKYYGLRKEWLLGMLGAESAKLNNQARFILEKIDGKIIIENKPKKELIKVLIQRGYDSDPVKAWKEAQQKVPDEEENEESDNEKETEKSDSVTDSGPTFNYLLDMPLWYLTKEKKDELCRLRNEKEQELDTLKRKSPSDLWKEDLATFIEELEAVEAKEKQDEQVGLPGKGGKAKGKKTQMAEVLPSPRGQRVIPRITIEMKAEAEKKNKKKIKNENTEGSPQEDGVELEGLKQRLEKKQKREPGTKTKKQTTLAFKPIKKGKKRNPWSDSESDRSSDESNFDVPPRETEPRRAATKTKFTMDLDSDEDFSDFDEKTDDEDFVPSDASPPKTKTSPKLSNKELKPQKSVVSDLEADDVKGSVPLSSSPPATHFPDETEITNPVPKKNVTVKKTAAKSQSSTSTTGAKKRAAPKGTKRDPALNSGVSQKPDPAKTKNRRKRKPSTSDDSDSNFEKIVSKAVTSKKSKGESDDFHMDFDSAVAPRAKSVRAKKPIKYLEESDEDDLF

MDA-MB-231 = assay: Cytotoxicity against human MDA-MB-231 cells assessed as cell growth inhibition measured after 2 days by cell counting kit-8 assay; type: functional, cell-based; conditions: MDA-MB-231, 48 h
T47D = assay: Cytotoxicity against human T47D cells assessed as cell growth inhibition measured after 2 days by cell counting kit-8 assay; type: functional, cell-based; conditions: 48 h
MDA-MB-468 = assay: Cytotoxicity against human MDA-MB-468 cells assessed as cell growth inhibition measured after 2 days by cell counting kit-8 assay; type: functional, cell-based; conditions: MDA-MB-468, 48 h
[3] = molecular target: DNA topoisomerase 2-alpha (Homo sapiens) (UniProt P11388); assay: Inhibition of human DNA topoisomerase 2alpha assessed as decrease in relaxation of supercoiled pBR322 plasmid DNA at 20 uM using supercoiled pBR322 plasmid DNA as substrate incubated for 30 mins in presence of ATP by ethidium bromide staining-based UV imaging analysis relative to control
[4] = molecular target: T1, DNA topoisomerase 1 (Homo sapiens); assay: as §1, with “100” for “20”

SMILES	inhibition [1]	inhibition [2]	IC50 (MDA-MB-231)	IC50 (T47D)	IC50 (MDA-MB-468)	inhibition [3]	inhibition [4]
O=C(/C=C/c1ccco1)c1ccccc1OCC1CS1 (centres undefined)	6.4%	95.4%	32.2 µM	6.61 µM	8.26 µM	30.6%	61.2%
O=C(/C=C/c1cccs1)c1cccc(OCC2CO2)c1 (centres undefined)	–	3.9%	15.4 µM	14.6 µM	16.3 µM	–	2.7%
O=C(/C=C/c1ccco1)c1cccc(OCC2CO2)c1 (centres undefined)	–	67.6%	27.8 µM	22.7 µM	37.3 µM	0.3%	28.5%
O=C(/C=C/c1ccc(OCC(O)CCl)cc1)c1cccs1 (centres undefined)	–	3.7%	30.3 µM	13 µM	7.75 µM	–	4.3%
O=C(/C=C/c1ccc(OCC2CO2)cc1)c1cccs1 (centres undefined)	15.6%	0%	13.9 µM	10.6 µM	6.3 µM	–	34.1%
O=C(/C=C/c1cccs1)c1cccc(OCC2CS2)c1 (centres undefined)	–	3.7%	19.9 µM	10.6 µM	6.98 µM	–	0%
O=C(/C=C/c1ccsc1)c1ccc(OCC2CO2)cc1 (centres undefined)	0%	2.7%	11.1 µM	10.6 µM	10.8 µM	–	46.3%
O=C(/C=C/c1ccc(OCC2CO2)cc1)c1ccco1 (centres undefined)	–	0%	22.2 µM	11.2 µM	17.3 µM	–	0%
O=C(/C=C/c1ccoc1)c1ccc(OCC2CS2)cc1 (centres undefined)	–	0%	19.3 µM	12.3 µM	5.3 µM	–	0%
O=C(/C=C/c1ccsc1)c1ccc(OCC2CS2)cc1 (centres undefined)	0%	0%	50 µM	9.32 µM	23.8 µM	–	100%
O=C(/C=C/c1cccs1)c1ccc(OCC2CS2)cc1 (centres undefined)	–	0%	16.7 µM	11.1 µM	5.27 µM	–	14.5%
O=C(/C=C/c1ccc(OCC2CS2)cc1)c1ccco1 (centres undefined)	–	0%	24.1 µM	10.6 µM	8.35 µM	–	3.3%
COc1cc([C@@H]2c3cc4c(cc3[C@@H](O[C@@H]3O[C@@H]5CO[C@@H](C)O[C@H]5[C@H](O)[C@H]3O)[C@H]3COC(=O)[C@H]23)OCO4)cc(OC)c1O [ETOPOSIDE]	–	–	9.13 µM	1.96 µM	0.86 µM	–	< 30%
O=C(/C=C/c1ccco1)c1ccc(OCC2CS2)cc1 (centres undefined)	0%	94.5%	18 µM	9.44 µM	4.32 µM	24.7%	63.8%
O=C(/C=C/c1ccc(OCC(O)CCl)cc1)c1ccco1 (centres undefined)	–	0%	> 50 µM	> 50 µM	9.53 µM	–	1.8%
O=C(/C=C/c1cccs1)c1ccccc1OCC1CS1 (centres undefined)	–	0.4%	17.9 µM	7.01 µM	4.35 µM	–	0.4%
O=C(/C=C/c1ccc(OCC2CS2)cc1)c1cccs1 (centres undefined)	–	0%	17.3 µM	3.83 µM	6.14 µM	–	5.1%
O=C(/C=C/c1ccoc1)c1ccc(OCC2CO2)cc1 (centres undefined)	–	0.3%	26.2 µM	20.6 µM	16.5 µM	–	5.6%
O=C(/C=C/c1ccco1)c1cccc(OCC2CS2)c1 (centres undefined)	1.3%	90.4%	28.9 µM	10.4 µM	7.23 µM	29.8%	75.4%
O=C(/C=C/c1cccs1)c1ccc(OCC2CO2)cc1 (centres undefined)	–	0.6%	28.3 µM	17.8 µM	17.2 µM	–	0%
O=C(/C=C/c1ccco1)c1ccc(OCC2CO2)cc1 (centres undefined)	0%	6.6%	47.1 µM	17.7 µM	48.9 µM	–	36.8%
O=C(/C=C/c1cccs1)c1ccccc1OCC1CO1 (centres undefined)	–	0.7%	17.9 µM	17.7 µM	7.71 µM	–	11.1%
O=C(/C=C/c1ccco1)c1ccccc1OCC1CO1 (centres undefined)	24.2%	82.3%	28.7 µM	19.4 µM	48.3 µM	0%	36.8%
COc1cccc2c1C(=O)c1c(O)c3c(c(O)c1C2=O)C[C@@](O)(C(=O)CO)C[C@@H]3O[C@H]1C[C@H](N)[C@H](O)[C@H](C)O1 [DOXORUBICIN HYDROCHLORIDE]	–	–	3.6 µM	2.18 µM	2.15 µM	–	–
CC[C@@]1(O)C(=O)OCc2c1cc1n(c2=O)Cc2cc3ccccc3nc2-1 [CAMPTOTHECIN]	–	< 30%	8.83 µM	3.67 µM	1.71 µM	–	–
